Values of other authors, collected in publication PMC12500691 (Frontiers in Cellular and Infection Microbiology, 2025).

Test system: NETosis
Settings: cited from earlier work

Compound: CC[C@H](C)[C@H](NC(=O)[C@H](CCCCN)NC(=O)[C@H](CCC(=O)O)NC(=O)[C@H](CCCCN)NC(=O)[C@H](CO)NC(=O)[C@H](CCCCN)NC(=O)[C@H](CCCNC(=N)N)NC(=O)[C@H](Cc1ccccc1)NC(=O)[C@H](Cc1ccccc1)NC(=O)[C@H](CC(=O)O)NC(=O)CNC(=O)[C@H](CC(C)C)NC(=O)[C@@H](N)CC(C)C)C(=O)NCC(=O)N[C@@H](CCCCN)C(=O)N[C@@H](CCC(=O)O)C(=O)N[C@@H](Cc1ccccc1)C(=O)N[C@@H](CCCCN)C(=O)N[C@@H](CCCNC(=N)N)C(=O)N[C@H](C(=O)N[C@H](C(=O)N[C@@H](CCC(N)=O)C(=O)N[C@@H](CCCNC(=N)N)C(=O)N[C@H](C(=O)N[C@@H](CCCCN)C(=O)N[C@@H](CC(=O)O)C(=O)N[C@@H](Cc1ccccc1)C(=O)N[C@@H](CC(C)C)C(=O)N[C@@H](CCCNC(=N)N)C(=O)N[C@@H](CC(N)=O)C(=O)N[C@@H](CC(C)C)C(=O)N[C@H](C(=O)N1CCC[C@H]1C(=O)N[C@@H](CCCNC(=N)N)C(=O)N[C@H](C(=O)N[C@@H](CCC(=O)O)C(=O)N[C@@H](CO)C(=O)O)[C@@H](C)O)C(C)C)[C@@H](C)CC)C(C)C)[C@@H](C)CC [LL-37]
- effect on NETosis: promote NETosis
